Converted amounts (≈) assume the structure as drawn.
How the values were obtained:
MRSA-1 = experiment: MIC, clinical isolate of S. aureus; assay type: cell-based; details: Staphylococcus aureus; clinical isolate MRSA-1; read-out: MIC
Procedure: (§1) The antibacterial activity of the thiosemicarbazides 1–9 and antibiotics (amoxicillin, gentamicin, levofloxacin, linezolid, and vancomycin) was tested on the Gram-positive strains (Microbiologics, St. Cloud, MN, USA) (S. aureus ATCC 25923, S. aureus ATCC 6538, S. epidermidis ATCC 12228, B. subtilis ATCC 6633, B. cereus ATCC 10876, M. luteus ATCC 10240), the Gram-negative strains (Microbiologics, St. Cloud, MN, USA) (E. coli ATCC 25922, K. pneumoniae ATCC 13883, P. mirabilis ATCC 12453, P. aeruginosa ATCC 9027), and clinical isolates of S. aureus (Medical University of Lublin, Lublin, Poland) (MSSA-1, MSSA-2, MSSA-3, MSSA-4, MRSA-1).

MSSA-1 = experiment: MIC, clinical isolate of S. aureus; assay type: cell-based; details: Staphylococcus aureus; clinical isolate MSSA-1; read-out: MIC
Procedure: as §1

MSSA-2 = experiment: MIC, clinical isolate of S. aureus; assay type: cell-based; details: Staphylococcus aureus; clinical isolate MSSA-2; read-out: MIC
Procedure: as §1

MSSA-3 = experiment: MIC, clinical isolate of S. aureus; assay type: cell-based; details: Staphylococcus aureus; clinical isolate MSSA-3; read-out: MIC
Procedure: as §1

MSSA-4 = experiment: MIC, clinical isolate of S. aureus; assay type: cell-based; details: Staphylococcus aureus; clinical isolate MSSA-4; read-out: MIC
Procedure: as §1

MTT cytotoxicity assay = assay type: cell-based, human; details: human, Hs27 foreskin fibroblast cells (ATCC CRL-1634), 25 µg/mL, 24 h, vehicle control = 100%
Procedure: (§2) A critical factor in research and development of new antibacterial agents is their abilities to selectively target bacterial cells without toxicity to mammalian cells. Thus, in order to test if antibacterial activity of title thiosemicarbazides is not due to their general toxicity, their effect on mammalian cell viability was assessed using human foreskin fibroblast Hs27 cells (CRL-1634) via MTT assay.
(§3) Cytotoxic properties of the compounds were evaluated using human foreskin fibroblast cells Hs27 (ATCC CRL-1634) (ATCC, Manassas, VA, USA) that were cultured in DMEM-high glucose (Sigma Aldrich, St. Louis, MO, USA). Medium was supplemented with 10% fetal bovine serum (FBS, Sigma Aldrich), 100 U/mL of penicillin, and […] of streptomycin (PenStrep, Sigma Aldrich, St. Louis, MO, USA). Cells were incubated at 37 °C in a humidified atmosphere of 5% CO2. Stock solutions of the tested compounds were prepared dissolving in a sterile dimethyl sulfoxide (DMSO) to the concentration of 50 mg/mL. The cells were seeded into 96-well sterile plates (Nunc) at a cell density of 1 × 10^5 cells/mL. After 24 h of incubation, the medium was removed from each well, and then cells were incubated for the next 24 h with tested compounds (in a fixed dose of 25 µg/mL) in DMEM-high glucose containing 2% FBS. Control cells were cultured only with medium containing 2% addition of FBS. Cytotoxicity of the compounds was evaluated using MTT assay, which is based on the conversion of 3-(4,5-dimethylthiazol-2-yl)-2,5- diphenyltetrazolium bromide (MTT) into dark-blue formazan crystals. Briefly, after 24-h incubation of cells with varying concentrations of the tested compounds, culture medium was removed from the plates. Cells were washed with PBS, and then 100 µL of medium containing 10% MTT solution (5 mg/mL) was added to each well. Cells were incubated for the next 3 h at 37 °C in an atmosphere of 5% CO2. Next, 100 µL (per well) of 10% sodium dodecyl sulfate (SDS) buffer solution was added to dissolve formazan crystals and after an overnight incubation the absorbance was measured at 570 nm using a microplate reader (Epoch, BioTek Instruments, Inc., Winooski, VT, USA).

[1] = test system: human foreskin fibroblast Hs27 cells (CRL-1634); experiment: MTT cytotoxicity assay; assay type: cell-based; details: Homo sapiens, 24 h of treatment
Procedure: as §2, §3

S. aureus ATCC 25923 [2] = experiment: Checkerboard broth dilution synergy assay; assay type: cell-based
Procedure: The microdilution checkerboard method was used to evaluate the synergistic effects between the thiosemicarbazides 1–9 and antibiotics, which were determined as the fractional inhibitory concentration indices (FICIs). For these experiments, amoxicillin, gentamicin, levofloxacin, linezolid, and vancomycin were selected to represent the five antimicrobial classes most commonly used in clinical practice. In this way, a total of 45 combinations of thiosemicarbazide-amoxicillin, thiosemicarbazide-gentamicin, thiosemicarbazide-levofloxacin, thiosemicarbazide-linezolid, and thiosemicarbazide-vancomycin against S. aureus ATCC 25923 were tested to identify in vitro synergy effects.
Interaction of the thiosemicarbazides 1–9 in combination with amoxicillin, gentamicin, levofloxacin, linezolid or vancomycin against S. aureus ATCC 25923 were analyzed using the checkerboard broth dilution method to determine the fractional inhibitory concentration indices (FICIs), calculated as: FIC = MIC of drug A in combination/MIC of drug A alone + MIC of drug B in combination/MIC of drug B alone. The calculated FICIs were interpreted as synergistic (FIC ≤ 0.5), additive (0.5 < FIC < 1), indifferent (1 ≤ FIC < 4.0), or antagonistic (FIC ≥ 4.0). The checkerboard assay included ciprofloxacin-carvedilol combination as positive control, whereas cefuroxime in combination with 4-(4-bromophenyl)-1-(3-fluorobezoyl)thiosemicarbazide served as negative control. The Z-factor value for the bioassay was 0.683.

[3] = target: T1, S. aureus topoisomerase IV (Staphylococcus aureus, UniProt P0C1S7+P0C1U9); experiment: Topoisomerase IV decatenation assay; assay type: biochemical; details: in words; 50 and 100 µM tested (Figures S1–S3)
T1 construct: purchased Inspiralis, Norwich, UK
Procedure: Inhibition of decatenation activity of S. aureus topoisomerase IV: The assay was performed using S. aureus topoisomerase IV decatenation kits (Inspiralis, Norwich, UK). Interlinked kDNA substrate (0.5 µg) was incubated with 1 unit of topoisomerase IV (Inspiralis, Norwich, UK), in the dedicated decatenation assay buffer supplied by the manufacturer, in the presence of varying concentrations of the test compounds. Reactions were carried out at 37 °C for 1 h and then terminated by the addition of equal volume of 2 × STOP Buffer and chloroform/iso-amyl alcohol. Samples were vortexed, centrifuged, and run through a 15 cm 1% agarose gel in TAE buffer for 1.5 h at 80 V. Gels were stained with ethidium bromide and visualized under UV light.

S. aureus ATCC 6538 = test system: S. aureus ATCC 6538; design: method as in PMID 25897586; details: S. a. ATCC 6538; compounds 1–5; cited from earlier work
S. aureus ATCC 25923 [4] = test system: S. aureus ATCC 25923; design: method as in PMID 25897586; details: S. a. ATCC 25923; compounds 1–5; cited from earlier work
[5] = test system: S. epidermidis ATCC 12228; design: method as in PMID 25897586; details: S. e. ATCC 12228; compounds 1–5; cited from earlier work
B. subtilis ATCC 6633 = test system: B. subtilis ATCC 6633; design: method as in PMID 25897586; details: B. s. ATCC 6633; compounds 1–5; cited from earlier work
B. cereus ATCC 10876 = test system: B. cereus ATCC 10876; design: method as in PMID 25897586; details: B. c. ATCC 10876; compounds 1–5; cited from earlier work
M. luteus ATCC 10240 = test system: M. luteus ATCC 10240; design: method as in PMID 25897586; details: M. l. ATCC 10240; compounds 1–5; cited from earlier work

T1 sequence (P0C1U9 whole entry): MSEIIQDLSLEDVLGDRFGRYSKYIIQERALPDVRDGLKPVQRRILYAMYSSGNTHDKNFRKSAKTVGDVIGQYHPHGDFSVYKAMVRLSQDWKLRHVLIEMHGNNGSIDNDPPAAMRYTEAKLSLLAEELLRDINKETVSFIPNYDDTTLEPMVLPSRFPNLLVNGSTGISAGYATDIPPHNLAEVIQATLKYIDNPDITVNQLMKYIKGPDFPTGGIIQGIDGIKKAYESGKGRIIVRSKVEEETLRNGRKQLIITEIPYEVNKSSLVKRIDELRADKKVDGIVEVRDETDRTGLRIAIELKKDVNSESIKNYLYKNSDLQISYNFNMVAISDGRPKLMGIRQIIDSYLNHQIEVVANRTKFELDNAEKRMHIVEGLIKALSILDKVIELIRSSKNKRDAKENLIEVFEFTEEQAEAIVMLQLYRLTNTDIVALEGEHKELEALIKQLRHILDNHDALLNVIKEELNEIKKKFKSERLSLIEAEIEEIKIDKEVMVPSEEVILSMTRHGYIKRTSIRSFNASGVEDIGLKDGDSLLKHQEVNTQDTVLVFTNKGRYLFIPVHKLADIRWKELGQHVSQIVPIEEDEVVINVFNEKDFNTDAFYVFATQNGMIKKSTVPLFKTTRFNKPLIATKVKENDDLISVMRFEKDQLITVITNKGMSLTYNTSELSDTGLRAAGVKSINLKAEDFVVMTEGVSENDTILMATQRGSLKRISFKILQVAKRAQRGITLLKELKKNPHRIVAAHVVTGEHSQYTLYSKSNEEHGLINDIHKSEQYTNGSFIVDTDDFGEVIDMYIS
T1 sequence (P0C1S7 whole entry): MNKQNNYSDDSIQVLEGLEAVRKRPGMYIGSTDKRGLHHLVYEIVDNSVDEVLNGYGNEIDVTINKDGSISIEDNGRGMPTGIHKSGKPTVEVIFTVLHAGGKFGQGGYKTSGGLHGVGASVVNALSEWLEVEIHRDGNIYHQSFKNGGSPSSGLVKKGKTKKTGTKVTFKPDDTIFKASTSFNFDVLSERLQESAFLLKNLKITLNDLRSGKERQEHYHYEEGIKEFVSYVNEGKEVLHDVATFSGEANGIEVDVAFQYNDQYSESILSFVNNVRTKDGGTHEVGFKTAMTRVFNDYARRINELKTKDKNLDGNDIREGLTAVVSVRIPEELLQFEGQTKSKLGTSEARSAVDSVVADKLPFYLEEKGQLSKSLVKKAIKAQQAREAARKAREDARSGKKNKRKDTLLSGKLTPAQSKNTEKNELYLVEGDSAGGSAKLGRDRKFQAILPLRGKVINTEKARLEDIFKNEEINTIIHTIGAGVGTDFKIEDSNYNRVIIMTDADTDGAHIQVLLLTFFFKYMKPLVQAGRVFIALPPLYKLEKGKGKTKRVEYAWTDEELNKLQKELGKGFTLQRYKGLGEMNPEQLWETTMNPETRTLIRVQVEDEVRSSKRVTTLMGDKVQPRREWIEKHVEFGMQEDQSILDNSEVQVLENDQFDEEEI

Row | Structure (SMILES) | MIC (MRSA-1) | MIC (MSSA-1) | MIC (MSSA-2) | MIC (MSSA-3) | MIC (MSSA-4) | viability at 24 h, 25 µg/mL (MTT cytotoxicity assay) | IC50 [1] | interaction in combination (S. aureus ATCC 25923 [2]; combination with amoxicillin) | interaction in combination (S. aureus ATCC 25923 [2]; combination with gentamicin) | interaction in combination (S. aureus ATCC 25923 [2]; combination with levofloxacin) | interaction in combination (S. aureus ATCC 25923 [2]; combination with linezolid) | interaction in combination (S. aureus ATCC 25923 [2]; combination with vancomycin) | inhibitory action against topoisomerase IV [3] | MIC (S. aureus ATCC 6538) | MIC (S. aureus ATCC 25923 [4]) | MIC [5] | MIC (B. subtilis ATCC 6633) | MIC (B. cereus ATCC 10876) | MIC (M. luteus ATCC 10240)
1 | Cc1ccccc1C(=O)NC(=S)NNC(=O)c1cccc(Cl)c1Cl [compound 1] | 125 µg/mL (≈ 327 µM) | > 500 µg/mL | > 500 µg/mL | > 500 µg/mL | > 500 µg/mL | 78.5% | > 25 µg/mL | additive | no interactions | no interactions | additive | no interactions | no inhibitory effects | 15.63 µg/mL (≈ 40.9 µM) | 15.63 µg/mL (≈ 40.9 µM) | 7.81 µg/mL (≈ 20.4 µM) | 3.91 µg/mL (≈ 10.2 µM) | 3.91 µg/mL (≈ 10.2 µM) | 1.95 µg/mL (≈ 5.1 µM)
2 | O=C(NC(=S)NNC(=O)c1cccc(Cl)c1Cl)c1ccccc1Cl [compound 3] | 125 µg/mL (≈ 310 µM) | > 500 µg/mL | > 500 µg/mL | > 500 µg/mL | 250 µg/mL (≈ 621 µM) | 81% | > 25 µg/mL | additively | additively | additively | additively | no interaction | no inhibitory effects | 15.63 µg/mL (≈ 38.8 µM) | 15.63 µg/mL (≈ 38.8 µM) | 7.81 µg/mL (≈ 19.4 µM) | 3.91 µg/mL (≈ 9.71 µM) | 3.91 µg/mL (≈ 9.71 µM) | 0.98 µg/mL (≈ 2.43 µM)
3 | O=C(NC(=S)NNC(=O)c1cccc(Cl)c1Cl)c1ccc(Cl)cc1 [compound 4] | > 500 µg/mL | > 500 µg/mL | > 500 µg/mL | > 500 µg/mL | 500 µg/mL (≈ 1240 µM) | 80.7% | > 25 µg/mL | additive | – | synergistic | additive | did not display any synergism nor additivity | – | 15.63 µg/mL (≈ 38.8 µM) | 31.25 µg/mL (≈ 77.6 µM) | 7.81 µg/mL (≈ 19.4 µM) | 0.98 µg/mL (≈ 2.43 µM) | 3.91 µg/mL (≈ 9.71 µM) | 1.95 µg/mL (≈ 4.84 µM)
4 | O=C(NC(=S)NNC(=O)c1cccc(Cl)c1Cl)c1ccc([N+](=O)[O-])cc1 [compound 5] | 250 µg/mL (≈ 605 µM) | > 500 µg/mL | > 500 µg/mL | > 500 µg/mL | 500 µg/mL (≈ 1210 µM) | 70.9% | > 25 µg/mL | no interactions | no interactions | no interactions | synergistically | no interactions | – | 1.95 µg/mL (≈ 4.72 µM) | 1.95 µg/mL (≈ 4.72 µM) | 1.95 µg/mL (≈ 4.72 µM) | 0.98 µg/mL (≈ 2.37 µM) | 0.98 µg/mL (≈ 2.37 µM) | 0.49 µg/mL (≈ 1.19 µM)

From paper PMC7288171, “Synergistic Effects of Thiosemicarbazides with Clinical Drugs against S. aureus” (Molecules, 2020)
